As a reminder, the solubility is the concentration that dissolves in the medium under given conditions.

Results on one molecule are retold here after patent US20250214966A1, “Crystalline Salt Form Of A SHP2 Inhibitor” (Array BioPharma Inc., priority 2022, published 2025).

Counter-ions that a name gives are not always drawn. Like-named read-outs stand apart in the source and are kept apart here.

What all share (type): physicochemical
The nature of series [1]: Dynamic vapor sorption of salts (Table 14). The settings on record: 25° C. On the procedure:
DVS (Table 14): Approximately, 10-20 mg of sample was placed into a mesh vapor sorption balance pan and loaded into a DVS Intrinsic dynamic vapor sorption balance by Surface Measurement Systems. The sample was subjected to a ramping profile from 40-90% relative humidity (RH) at 10% increments, maintaining the sample at each step until a stable weight had been achieved (dm/dt 0.004%, minimum step length 30 minutes, maximum step length 500 minutes) at 25° C. After completion of the sorption cycle, the sample was dried using the same procedure to 0% RH and then a second sorption cycle back to 40% RH. Two cycles were performed. Theweight change during the sorption/desorption cycles were plotted, allowing for the hygroscopic nature of the sample to be determined. XRPD analysis was then carried out on any solid retained. […] The sample was subjected to a ramping profile from 40-90% relative humidity (RH) at 10% increments, maintaining the sample at each step until a stable weight had been achieved (dm/dt 0.004%, minimum step length 30 minutes, maximum step length 500 minutes) at 25° C. After completion of the sorption cycle, the sample was dried using the same procedure to 0% RH and then a second sorption cycle back to 40% RH. Two cycles were performed. The weight change during the sorption/desorption cycles were plotted, allowing for the hygroscopic nature of the sample to be determined. XRPD analysis was then carried out on any solid retained.

Series [2] in a line: Solubility of salts in buffer systems at 37° C. (Table 14). The note with it: thermodynamic from solid, 20 mg in 1 mL. On the procedure:
The solubility (Table 14) was determined by adding 20 mg of salts (Examples 3 to 8) into 3 HPLC vials, to each vial, a magnetic stirrer bar was added along with 1 mL of the appropriate buffer system (pH 1.2 HCl, pH 4.5 sodium acetate, or pH 6.8 phosphate). The samples were agitated at 37° C. for […]. After 24 hours, the slurries were isolated by centrifugation filtration and isolated mother liquors were analyzed by HPLC.
HPLC method (Table 14): A Dionex Ultimate 3000 HPLC instrument was used with a Waters XSelect HSS T3 Column (100 angstrom, 4.6×150 mm, 5 μm). The column temperature was set to 20° C., the UV wavelength set to 254 nm, the injection volume was 10 μL, with a flow rate of 1.0 mL/min. 10 mM ammonium acetate adjusted to pH 4.8 was used as a mobile phase A, and acetonitrile was used as mobile phase B. The gradient method was set up to achieve 15% mobile phase B at 0 minutes, 95% mobile phase B at 17 minutes—held until 22 minutes, 15% mobile phase B at 22.1 minutes—held until 28 minutes.

Series [3] in a line: TGA/DSC of salts (Table 14). The note with it: 10° C./min. On the procedure:
TGA/DSC (Table 14): Approximately, 5-10 mg of material was added into a pre-tared open aluminum pan and loaded into a TA Instruments Discovery SDT 650 Auto—Simultaneous DSC and held at room temperature. The sample was then heated at a rate of 10° C./min from 20° C. (ambient) to 400° C. during which time the change in sample weight was recorded along with the heat flow response (DSC). Nitrogen was used as the sample purge gas, at a flow rate of 200 cm3/min.
DSC (Table 14): Approximately, 1-5 mg of material was weighed into an aluminum DSC pan and sealed nonhermetically with an aluminum lid. The sample pan was then loaded into a TA Instruments Discovery DSC 2500 differential scanning calorimeter equipped with a RC90 cooler. The sample and reference were heated to 310° C. at a scan rate of 10° C./min and the resulting heat flow response monitored. The sample was re-cooled to 20° C. and then reheated again to 205° C. all at 10° C./min. Nitrogen was used as the purge gas, at a flow rate of 50 cm^3/min.

For the molecule `Nc1nccc(Sc2cnc(N3CCC4(CC3)Cc3ccccc3[C@H]4N)nn2)c1Cl` [Example 3, (S)-1′-(6-((2-amino-3-chloropyridin-4-yl)thio)-1,2,4-triazin-3-yl)-1,3-dihydrospiro[indene-2,4′-piperidin]-1-amine Mono Succinate Salt Form 1], in series [1], the DVS hygroscopic nature result is “Slightly”. Moreover, the “DVS Wt.” value in series [1] (up to 70% RH, possible hydration above 70% RH) is “hygroscopic 0.7%”. The solubility at 18 h is greater than 20 mg/mL in series [2] (pH 1.2 HCl buffer, simulated gastric fluid, pH 1.2 HCl, read-out: Solubility pH 1.2 HCl); 0.2 mg/mL in series [2] (pH 4.5 sodium acetate buffer, aqueous buffer, pH 4.5 sodium acetate, read-out: Solubility pH 4.5 Sodium Acetate); 1.3 mg/mL in series [2] (pH 6.8 phosphate buffer, aqueous buffer, pH 6.8 phosphate, read-out: Solubility Ph 6.8 Phosphate). The “TGA/DSC Melt/degradation” value in series [3] is 197.3 °C.
